From patent US9029325B2, “Amylin analogues and pharmaceutical compositions thereof” (Novo Nordisk A/S, priority 2011, dated 2015)
Starred links: 1 amine or outer side, 2 acyl side, 3 side chain; linkers in the order of their positions; H or OH if unused. Positions of bridges follow the written chain, without caps; N, C: chain ends. Residues, ends and D or L forms follow the SMILES beside them. *: point of attachment. C20 diacid = O=C(O)CCCCCCCCCCCCCCCCCCC(=O)*; γGlu = O=C(O)[C@H](CCC(=O)[*:2])N[*:1]

Experiment: Assay (III) ThT fibrillation assay for physical stability
Type: physicochemical
Conditions: for Th T pH 4.0 lag time (h): 37° C., orbital shaking 960 rpm; for ThT pH 4.0 lag time: Table 9
From the text: Low physical stability of a polypeptide may lead to amyloid fibril formation, which is observed as well-ordered, thread-like macromolecular structures in the sample eventually resulting in gel formation. This has traditionally been measured by visual inspection of the sample. However, that kind of measurement is very subjective and depending on the observer. Therefore, the application of a small molecule indicator probe is much more advantageous. Thioflavin T (ThT) is such a probe and has a distinct fluorescence signature when binding to fibrils [Naiki et al. (1989) Anal. Biochem. 177, 244-249; LeVine (1999) Methods. Enzymol. […], 274-284].
The time course for fibril formation can be described by a sigmoidal curve with the following expression [Nielsen et al. (2001) Biochemistry 40, 6036-6046]:
[formula] Here, F is the ThT fluorescence at the time t. The constant t0 is the time needed to reach 50% of maximum fluorescence. The two important parameters describing fibril formation are the lag-time calculated by t0−2T and the apparent rate constant kapp=1/τ.
Few of those intermediates nucleate to form a template onto which further intermediates may assembly and the fibrillation proceeds. The lag-time corresponds to the interval in which the critical mass of nucleus is built up and the apparent rate constant is the rate with which the fibril itself is formed.
Samples were prepared freshly before each assay. Each sample composition is described in each example. The pH of the sample was adjusted to the desired value using appropriate amounts of concentrated NaOH and HClO4 or HCl. Thioflavin T was added to the samples from a stock solution in H2O to a final concentration of 1 μM.
Sample aliquots of 200 μl were placed in a 96 well microtiter plate (Packard OptiPlate™-96, white polystyrene). Usually, four or eight replica of each sample (corresponding to one test condition) were placed in one column of wells. The plate was sealed with Scotch Pad (Qiagen).
Incubation at given temperature, shaking and measurement of the ThT fluorescence emission were done in a Fluoroskan Ascent FL fluorescence platereader or Varioskan platereader (Thermo Labsystems). The temperature was adjusted to 37° C. The orbital shaking was adjusted to 960 rpm with an amplitude of 1 mm in all the presented data. Fluorescence measurement was done using excitation through a 444 nm filter and measurement of emission through a 485 nm filter.
Each run was initiated by incubating the plate at the assay temperature for 10 min. The plate was measured every 20 minutes for a desired period of time. Between each measurement, the plate was shaken and heated as described.
The measurement points were saved in Microsoft Excel format for further processing and curve drawing and fitting was performed using GraphPad Prism. The background emission from ThT in the absence of fibrils was negligible. The data points are typically a mean of four or eight samples and shown with standard deviation error bars. Only data obtained in the same experiment (i.e. samples on the same plate) are presented in the same graph ensuring a relative measure of fibrillation […].
The data set may be fitted to Eq. (1). However, since full sigmodial curves in this case are not always achieved during the measurement time, the degree of fibrillation is expressed as ThT fluorescence tabulated as the mean of the samples and shown with the standard deviation at various time points.
The polypeptide concentration in each of the tested formulations were measured both before application in the ThT fibrillation assay (“Initial”) and after completion of the ThT fibrillation (“After ThT assay”). Concentrations were determined by reverse HPLC methods using a pramlintide standard as a reference. Before measurement after completion 150 μl was collected from each of the replica and transferred to an Eppendorf tube. These were centrifuged at 30000 G for 40 mins. […]

Th T pH 4.0 lag time (h)	ThT pH 4.0 lag time [hr]	SMILES
>45	>45	CC[C@H](C)[C@H](NC(=O)[C@@H]1CCCN1C(=O)CNC(=O)[C@H](Cc1ccccc1)NC(=O)[C@H](CCC(N)=O)NC(=O)[C@H](CCC(N)=O)NC(=O)[C@H](CO)NC(=O)[C@H](CO)NC(=O)[C@H](Cc1c[nH]cn1)NC(=O)[C@H](CCCNC(=N)N)NC(=O)[C@H](CC(C)C)NC(=O)[C@H](Cc1ccccc1)NC(=O)[C@H](CCC(=O)O)NC(=O)[C@H](C)NC(=O)[C@H](CC(C)C)NC(=O)[C@H](CCCNC(=N)N)NC(=O)[C@H](CCC(N)=O)NC(=O)[C@@H](NC(=O)[C@H](C)NC(=O)[C@@H]1CSSC[C@H](NC(=O)[C@H](CCC(=O)O)NC(=O)[C@H](CCCNC(=N)N)NC(=O)[C@H](CCC(=O)O)NC(=O)CC[C@H](NC(=O)CCCCCCCCCCCCCCCCCCC(=O)O)C(=O)O)C(=O)N[C@@H](CC(N)=O)C(=O)N[C@@H]([C@@H](C)O)C(=O)N[C@@H](C)C(=O)N[C@@H]([C@@H](C)O)C(=O)N1)[C@@H](C)O)C(=O)N[C@@H](CC(C)C)C(=O)N1CCC[C@H]1C(=O)N1CCC[C@H]1C(=O)N[C@H](C(=O)N[C@@H](CCC(N)=O)C(=O)N[C@H](C(=O)NCC(=O)N[C@@H](CO)C(=O)N[C@@H](CCC(N)=O)C(=O)N[C@H](C(=O)N1CCC[C@H]1C(N)=O)[C@@H](C)O)C(C)C)[C@@H](C)O [Example 164, N-alpha-[(S)-4-Carboxy-4-(19-carboxynonadecanoylamino)butyryl]-Glu-Arg-[Glu1, Glu14, Arg17, Gln21, Gln22, Gln31, Gln35, Pro37]-pramlintide] ({C20 diacid-γGlu}-ERECNTATCATQRLAEFLRHSSQQFGPILPPTQVGSQTP-NH2; disulfide 4-9 (inferred); C-terminus assumed)
29	–	CC[C@H](C)[C@H](NC(=O)[C@@H]1CCCN1C(=O)CNC(=O)[C@H](Cc1ccccc1)NC(=O)[C@H](CC(N)=O)NC(=O)[C@H](CC(N)=O)NC(=O)[C@H](CO)NC(=O)[C@H](CO)NC(=O)[C@H](Cc1c[nH]cn1)NC(=O)[C@H](Cc1c[nH]cn1)NC(=O)[C@H](CC(C)C)NC(=O)[C@H](Cc1ccccc1)NC(=O)[C@H](CCC(=O)O)NC(=O)[C@H](C)NC(=O)[C@H](CC(C)C)NC(=O)[C@H](CCCNC(=N)N)NC(=O)[C@H](CCC(N)=O)NC(=O)[C@@H](NC(=O)[C@H](C)NC(=O)[C@@H]1CSSC[C@H](NC(=O)CNC(=O)CC[C@H](NC(=O)CCCCCCCCCCCCCCCCCCC(=O)O)C(=O)O)C(=O)N[C@@H](CC(N)=O)C(=O)N[C@@H]([C@@H](C)O)C(=O)N[C@@H](C)C(=O)N[C@@H]([C@@H](C)O)C(=O)N1)[C@@H](C)O)C(=O)N[C@@H](CC(C)C)C(=O)N1CCC[C@H]1C(=O)N1CCC[C@H]1C(=O)N[C@H](C(=O)N[C@@H](CC(N)=O)C(=O)N[C@H](C(=O)NCC(=O)N[C@@H](CO)C(=O)N[C@@H](CC(N)=O)C(=O)N[C@H](C(=O)N1CCC[C@H]1C(N)=O)[C@@H](C)O)C(C)C)[C@@H](C)O [Example 91, N-alpha-[(S)-4-Carboxy-4-(19-carboxynonadecanoylamino)butyryl]-[Gly1, Glu14, His17, Pro37]-pramlintide] ({C20 diacid-γGlu}-GCNTATCATQRLAEFLHHSSNNFGPILPPTNVGSNTP-NH2; disulfide 2-7)
>45	–	CC[C@H](C)[C@H](NC(=O)[C@@H]1CCCN1C(=O)CNC(=O)[C@H](Cc1ccccc1)NC(=O)[C@H](CC(N)=O)NC(=O)[C@H](CC(N)=O)NC(=O)[C@H](CO)NC(=O)[C@H](CO)NC(=O)[C@H](Cc1c[nH]cn1)NC(=O)[C@H](CCCNC(=N)N)NC(=O)[C@H](CC(C)C)NC(=O)[C@H](Cc1ccccc1)NC(=O)[C@H](CCC(=O)O)NC(=O)[C@H](C)NC(=O)[C@H](CC(C)C)NC(=O)[C@H](CCCNC(=N)N)NC(=O)[C@H](CCC(N)=O)NC(=O)[C@@H](NC(=O)[C@H](C)NC(=O)[C@@H]1CSSC[C@H](NC(=O)[C@H](CCCNC(=N)N)NC(=O)[C@H](CCC(=O)O)NC(=O)CC[C@H](NC(=O)CCCCCCCCCCCCCCCCCCC(=O)O)C(=O)O)C(=O)N[C@@H](CC(N)=O)C(=O)N[C@@H]([C@@H](C)O)C(=O)N[C@@H](C)C(=O)N[C@@H]([C@@H](C)O)C(=O)N1)[C@@H](C)O)C(=O)N[C@@H](CC(C)C)C(=O)N1CCC[C@H]1C(=O)N1CCC[C@H]1C(=O)N[C@H](C(=O)N[C@@H](CC(N)=O)C(=O)N[C@H](C(=O)NCC(=O)N[C@@H](CO)C(=O)N[C@@H](CC(N)=O)C(=O)N[C@H](C(=O)N1CCC[C@H]1C(N)=O)[C@@H](C)O)C(C)C)[C@@H](C)O [Example 156, N-alpha-[(S)-4-Carboxy-4-(19-carboxynonadecanoylamino)butyryl]-Glu-[Arg1, Glu14, Arg17, Pro37]-pramlintide] ({C20 diacid-γGlu}-ERCNTATCATQRLAEFLRHSSNNFGPILPPTNVGSNTP-NH2; disulfide 3-8)
>45	>45	CC[C@H](C)[C@H](NC(=O)[C@@H]1CCCN1C(=O)CNC(=O)[C@H](Cc1ccccc1)NC(=O)[C@H](CC(N)=O)NC(=O)[C@H](CC(N)=O)NC(=O)[C@H](CO)NC(=O)[C@H](CO)NC(=O)[C@H](Cc1c[nH]cn1)NC(=O)[C@H](Cc1c[nH]cn1)NC(=O)[C@H](CC(C)C)NC(=O)[C@H](Cc1ccccc1)NC(=O)[C@H](CCC(=O)O)NC(=O)[C@H](C)NC(=O)[C@H](CC(C)C)NC(=O)[C@H](CCCCN)NC(=O)[C@H](CCC(N)=O)NC(=O)[C@@H](NC(=O)[C@H](C)NC(=O)[C@@H]1CSSC[C@H](NC(=O)[C@H](CCCCN)NC(=O)CC[C@H](NC(=O)CCCCCCCCCCCCCCCCCCC(=O)O)C(=O)O)C(=O)N[C@@H](CC(N)=O)C(=O)N[C@@H]([C@@H](C)O)C(=O)N[C@@H](C)C(=O)N[C@@H]([C@@H](C)O)C(=O)N1)[C@@H](C)O)C(=O)N[C@@H](CC(C)C)C(=O)N1CCC[C@H]1C(=O)N1CCC[C@H]1C(=O)N[C@H](C(=O)N[C@@H](CC(N)=O)C(=O)N[C@H](C(=O)NCC(=O)N[C@@H](CO)C(=O)N[C@@H](CC(N)=O)C(=O)N[C@H](C(=O)N1CCC[C@H]1C(N)=O)[C@@H](C)O)C(C)C)[C@@H](C)O [Example 145, N-alpha-[(S)-4-Carboxy-4-(19-carboxynonadecanoylamino)butyryl]-[Lys11, Glu14, His17, Pro37]-pramlintide] ({C20 diacid-γGlu}-KCNTATCATQKLAEFLHHSSNNFGPILPPTNVGSNTP-NH2; disulfide 2-7)
